The values that follow come from US20190374543A1, “Therapeutic Combinations of an Antifolate and a BTK Inhibitor” (Acerta Pharma B.V., priority 2016, published 2019).

What all share (type): in vivo
Experiment [1] has as its system type II collagen arthritis. The experiment is described as follows: mouse type II collagen arthritis model: body weight, daily clinical arthritis scores (AUC), incidence.
Experiment [2] relates to type II collagen arthritis. The experiment is described as follows: histopathology of paws and knees in mouse type II collagen arthritis model. The note with it: for Histopathology Summed Scores (All Joints): mean (SE). An excerpt:
(§1) On study day 43, mice were euthanized and necropsy specimens were obtained. After terminal bleeds, animals were euthanized by cervical dislocation. Fore paws, hind paws, and knees were harvested and placed in 10% neutral buffered formalin (NBF) for microscopy. Spleens were harvested from a subset of mice and processed for splenocytes.
After 1-2 days in fixative and 4-5 days in 5% formic acid for decalcification, tissues were trimmed, and processed for paraffin embedding. Paws were embedded in paraffin in the frontal plane and knees were embedded with the patella facing down. Ankles, if left attached to the hind paw, were also embedded in the frontal plane but in some instances were detached and sectioned in the sagittal plane for special purposes. Left/right pairs were typically embedded in the same block. Sections were then cut and stained with toluidine blue.
When scoring paws or ankles from mice with lesions of type II collagen arthritis, severity of changes as well as number of individual joints affected was considered. When only one to three joints of the paws or ankles out of a possibility of numerous metacarpal/metatarsal/digit or tarsal/tibiotarsal joints was affected, an arbitrary assignment of a maximum score of 0.5, 1, 2 or 3 for parameters below was given depending on severity of changes. If more than three joints were involved, the criteria below were applied to the most severely affected/majority of joints. In the case of knees, severity of changes in medial and lateral, as well as femoropatellar spaces, were considered.
The following parameters were scored according to the indicated criteria: Inflammation Score, Pannus Score, Cartilage Damage Score, Bone Resorption Score, and Periosteal New Bone Formation Score and Measurements. Unless otherwise indicated, criteria apply to both paws and knees. Mean values for each parameter are determined separately for the paws, knees, and the entire animal (if applicable).
The Inflammation Score was determined based on the following criteria for Paw Score and Knee Score.
The Paw Score was classified based on the following criteria: 0=Normal; 0.5=Very minimal, affects only 1 joint or minimal multifocal periarticular infiltration of inflammatory cells; 1=Minimal infiltration of inflammatory cells in synovium and periarticular tissue of affected joints; 2=Mild infiltration of inflammatory cells. If referring to paws, generally restricted to affected joints (1-3 affected); 3=Moderate infiltration with moderate edema. If referring to paws, restricted to affected joints, generally 3-4 joints and the wrist or ankle; 4=Marked infiltration affecting most areas with marked edema, 1 or 2 unaffected joints may be present; 5=Severe diffuse infiltration with severe edema affecting all joints (to some extent) and periarticular tissues.
The Knee Score was classified based on the following criteria: 0=Normal; 0.5=Very minimal, affects only one area of the synovium or minimal multifocal periarticular infiltration of inflammatory cells; 1=Minimal infiltration of inflammatory cells in synovium and periarticular tissue of affected synovial areas; 2=Mild diffuse infiltration of inflammatory cells; 3=Moderate diffuse infiltration of inflammatory cells; 4=Marked diffuse infiltration of inflammatory cells; 5=Severe diffuse infiltration of inflammatory cells.
The inflammatory infiltrate in mice and rats with type II collagen arthritis consists of neutrophils and macrophages with smaller numbers of lymphocytes when the lesions are in the acute to subacute phase. Tissue edema and neutrophil exudates within the joint space are common in the acute to subacute phase. As the inflammation progresses to chronic, mononuclear inflammatory cells (monocytes, lymphocytes) predominate and fibroblast proliferation, often with deposition of metachromatic matrix, occurs in synovium and periarticular tissue. Exudate is less common in the joint space.

For another experiment, the target named is T1, BTK (Mus musculus, UniProt P35991).
T1 construct: from tissue; host or cells: splenocytes from spleens of collagen-induced-arthritis DBA/1 mice
T1 sequence (P35991 whole entry): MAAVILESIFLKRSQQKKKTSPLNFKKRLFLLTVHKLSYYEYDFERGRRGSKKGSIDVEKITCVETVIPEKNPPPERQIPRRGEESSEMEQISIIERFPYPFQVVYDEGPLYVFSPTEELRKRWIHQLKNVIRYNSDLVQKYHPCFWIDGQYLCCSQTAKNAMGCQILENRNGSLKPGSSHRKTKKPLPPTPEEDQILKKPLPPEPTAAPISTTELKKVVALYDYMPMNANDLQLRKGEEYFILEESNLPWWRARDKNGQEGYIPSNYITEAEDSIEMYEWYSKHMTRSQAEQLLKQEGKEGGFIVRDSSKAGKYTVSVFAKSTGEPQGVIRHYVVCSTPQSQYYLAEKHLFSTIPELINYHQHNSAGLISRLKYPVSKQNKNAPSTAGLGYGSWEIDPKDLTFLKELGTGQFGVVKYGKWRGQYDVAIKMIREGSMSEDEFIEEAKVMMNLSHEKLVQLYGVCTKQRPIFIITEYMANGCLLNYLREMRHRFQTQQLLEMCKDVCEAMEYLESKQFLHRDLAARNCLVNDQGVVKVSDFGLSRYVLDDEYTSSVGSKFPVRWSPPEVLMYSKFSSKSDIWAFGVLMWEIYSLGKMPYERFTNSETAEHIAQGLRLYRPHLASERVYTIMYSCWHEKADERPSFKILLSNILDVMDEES
The experiment is described as follows: BTK occupancy in splenocytes collected after euthanasia. The note with it: with vs without MTX co-treatment.
Text: as §1

Setting [3] is: 5 mg/kg Formula (2) alone, vs vehicle controls.
Where [4] appears, read: Group 3: MTX vehicle + BTK inhibitor of formula (2) 1 mg/kg PO QD d28-43.
Where [5] appears, read: Group 4: MTX vehicle + BTK inhibitor of formula (2) 5 mg/kg PO QD d28-43.
The mark [6] stands for this setting: Group 5: MTX 0.3 mg/kg PO QD d18-43 + BTK inhibitor of formula (2) vehicle.
The mark [7] stands for this setting: Group 6: MTX 0.5 mg/kg PO QD d18-43 + BTK inhibitor of formula (2) vehicle.

Take `CC#CC(=O)N1CCC[C@H]1c1nc(-c2ccc(C(=O)Nc3ccccn3)cc2)c2c(N)nccn12` [BTK inhibitor of Formula (2), (S)-4-(8-amino-3-(1-(but-2-ynoyl)pyrrolidin-2-yl)imidazo[1,5-c]pyrazin-1-yl)-N-(pyridin-2-yl)benzamide]: the “disease-induced body weight loss (percent change from baseline)” value in experiment [1] (1 mg/kg Formula (2), vs vehicle controls, Day 36) was “significantly inhibited”. In experiment [1] (setting [3]), the “daily clinical arthritis scores over time” value is reported as “differed significantly”, the “inhibition of absolute body weight loss at study termination” value amounted to 66% and the “reduction of arthritis scores AUC Days 18-43” value was 62%. Further, in experiment [1] (5 mg/kg Formula (2), vs vehicle controls, Days 32-38 and 43), the “disease-induced body weight loss (percent change from baseline)” value is “significantly inhibited”. Moreover, the clinical arthritis scores entry in experiment [1] (5 mg/kg Formula (2), vs vehicle controls, Study Days 30-43) is given as “significantly reduced”. For the same compound, in experiment [1] (setting [4]), the “Change in Body Weight (g) Day 18-43” value was -0.19 g, the “Clinical Arthritis Score AUC Day 18-43” value is 61.41, the “Clinical Arthritis Score AUC Day 28-43” value turned out to be 54.81 and the “Percent Incidence” value worked out at 100%. Further, in experiment [1] (setting [5]), the “Change in Body Weight (g) Day 18-43” value was “*0.12 g”, the “Clinical Arthritis Score AUC Day 18-43” value was “*27.30” and the “Clinical Arthritis Score AUC Day 28-43” value is recorded as “*21.27”. Also, the “Percent Incidence” value in experiment [1] (Group 4: MTX vehicle + BTK inhibitor of formula (2) 5 mg/kg PO QD d28-43, at termination, 5 mg/kg) came to 42%. Moreover, the “Percent Incidence” value in experiment [1] (Group 4: MTX vehicle + BTK inhibitor of formula (2) 5 mg/kg PO QD d28-43, at termination, listed as BTK inhibitor of formula (2), 5 mg/kg) was found to be 42%. For the same compound, in experiment [2] (setting [3]), the “reduction of knee bone resorption” value worked out at 90%, the “reduction of knee inflammation” value is reported as 72%, the “reduction of knee pannus formation” value is on record as 85% and the “reduction of summed knee histopathology scores” value was found to be 74%. Further, in experiment [2] (setting [3]), the “reduction of summed paw histopathology scores” value turned out to be 72%, the “reduction of summed six-joint mean histopathology scores” value stood at 73%, the “reductions of all paw histopathology parameters” value was 59-82% and the “reductions of all six-joint mean histopathology parameters” value was 63-82%. Moreover, the “reductions of paw and six-joint mean periosteal bone widths” value in experiment [2] (setting [3]) is 82-83%. The “Histopathology Summed Scores (All Joints)” value (“Histopathology Summed Scores” for short) in experiment [2] (setting [4]) is recorded as 11.03 (1.01). Also, the “Histopathology Summed Scores” value in experiment [2] (setting [5]) was “*4.15 (1.01)”. The “Btk occupancy in splenocytes” value at BTK is recorded as “the same in the presence or absence of MTX”.
Turning to `CN(Cc1cnc2nc(N)nc(N)c2n1)c1ccc(C(=O)N[C@@H](CCC(=O)O)C(=O)O)cc1` [MTX, (2S)-2-[(4-{[(2,4-Diaminopteridin-6-yl)methyl](methyl)amino}benzoyl)amino]pentanedioic acid, reference compound], the “daily clinical arthritis scores over time” value in experiment [1] (0.5 mg/kg MTX alone, vs vehicle controls) is reported as “differed significantly”. In addition, the clinical arthritis scores result in experiment [1] (0.5 mg/kg MTX, vs vehicle controls, Days 25-29) was “significantly reduced”. In experiment [1] (setting [6]), the “Change in Body Weight (g) Day 18-43” value is -1.16 g, the “Clinical Arthritis Score AUC Day 18-43” value was determined as 51.72, the “Clinical Arthritis Score AUC Day 28-43” value was determined as 48.82 and the “Percent Incidence” value turned out to be 100%. For the same compound, in experiment [1] (setting [7]), the “Change in Body Weight (g) Day 18-43” value was -0.83 g, the “Clinical Arthritis Score AUC Day 18-43” value amounted to 46.79, the “Clinical Arthritis Score AUC Day 28-43” value stood at 45.51 and the “Percent Incidence” value is recorded as 100%. Besides, the “Histopathology Summed Scores” value in experiment [2] (setting [6]) is recorded as 10.24 (1.66). Besides, the “Histopathology Summed Scores” value in experiment [2] (setting [7]) is given as 8.46 (1.36).
